From patent publication US20140171404A1, “Autotaxin inhibitors” (NOVARTIS AG, priority 2012, published 2014)

What follows are compounds tested against T1, Recombinant human ATX (Homo sapiens, UniProt Q13822) (assay: Assessing ATX inhibition: released choline, Amplex Red fluorescence). Settings: ATX 10 nM, LPC 18:1 10 μM, pre-incubated with ATX at 37° C. for 20 minutes; Table 1, exemplified compounds; read-out: IC50.
T1 construct: made in house; host or cells: human embryonic kidney (HEK) cells
Format: biochemical
Method: LPC (oleoyl (18:1)) was purchased from Avanti Polar Lipids (Alabaster; AL) and solubilized in methanol to 20 mM. Amplex Red was obtained from Invitrogen Life Technologies (Paisley, UK) and dissolved in DMSO to 10 mM. Choline oxidase and horseradish peroxidase (HRP) were obtained from Sigma Aldrich (Dorset, UK) and dissolved in HBSS to 20 U/ml and 200 U/ml respectively. All reagents were stored at −20° C. in single use aliquots. All experimental measurements were performed in assay buffer made up immediately prior to use (HBSS, 0.01% BSA essentially fatty acid free).
Recombinant human ATX was prepared at Novartis (Basel, CH) in a human embryonic kidney (HEK) cell preparation, and stored in single use aliquots of […] (26 μM) stocks stored at −80° C.
All experimental measurements were performed in black 384 well polystyrene (low volume, round bottom, Corning (3676)) plates. PerkinElmer EnVision (Fluorescence Intensity/Absorbance Monochromator) or Tecan Infinite 200 PRO series plate reader was used to detect change in fluorescent intensity.
ATX activity was determined by measurement of released choline in reactions containing ATX (10 nM), choline oxidase (0.1 U/ml), HRP (100 U/ml), amplex red (50 μM) and LPC 18:1 (10 μM). Compounds of the invention were prepared as 10 point serial dilutions from 1 μM in duplicate and pre-incubated with ATX at 37° C. for 20 minutes prior to the addition of remaining reagents. The liberated choline was measured from changes in fluorescence intensity (λex 530 nm, λem 590 nm) of the product resurofin at 37° C. every 2 minutes over a 40-minute period. ATX activity was measured as a slope of the linear portion of the progress curve, typically between 14 to 24 minutes.
Slope data was exported to Graphpad prism (Graphpad software, San Diego, Calif.) where data was fitted to equation 1.
Y=Bottom+(Top−Bottom)/(1+10̂((Log IC50−X)*HillSlope)) Equation 1: […]

Compared with `O=C(OCc1cc(Cl)cc(Cl)c1)N1CCC(CCCCCc2c[nH]nn2)CC1` [Example 68, 3,5-Dichlorobenzyl 4-(5-(1H-1,2,3-triazol-4-yl)pentyl)piperidine-1-carboxylate], `N#Cc1cc(Cl)cc(COC(=O)N2CCC(CCCCCc3c[nH]nn3)CC2)c1` [Example 69, 3-Chloro-5-cyanobenzyl 4-(5-(1H-1,2,3-triazol-4-yl)pentyl)piperidine-1-carboxylate] is 4.6-fold lower in IC50: 318 nM for the first, 69 nM for the second.

Compared with `N#Cc1cc(COC(=O)N2CCC(NC(=O)CCCc3c[nH]nn3)CC2)cc(OC(F)(F)F)c1` [Example 70, 3-Cyano-5-(trifluoromethoxy)benzyl 4-(4-(1H-1,2,3-triazol-4-yl)butanamido)piperidine-1-carboxylate], `Cc1cc(C#N)cc(COC(=O)N2CCC(NC(=O)CCCc3c[nH]nn3)CC2)c1` [Example 71, 3-Cyano-5-methylbenzyl 4-(4-(1H-1,2,3-triazol-4-yl)butanamido)piperidine-1-carboxylate] is 2.6-fold higher in IC50: 5 nM for the first, 13 nM for the second.

Going from `N#Cc1cc(COC(=O)N2CCC(NC(=O)CCCc3c[nH]nn3)CC2)cc(Cl)c1Cl` [Example 72, 3,4-Dichloro-5-cyanobenzyl 4-(4-(1H-1,2,3-triazol-4-yl)butanamido)piperidine-1-carboxylate] to `O=C(CCCc1nnn[nH]1)NC1CCN(C(=O)OCc2cc(Cl)cc(Cl)c2)CC1` [Example 74, 3,5-Dichlorobenzyl 4-(4-(1H-tetrazol-5-yl)butanamido)piperidine-1-carboxylate], the IC50 rises from 7 nM to 21 nM (3-fold). The first is the more potent here.

First: O=C(CCCc1c[nH]c(=O)s1)NC1CCN(C(=O)OCc2cc(Cl)cc(Cl)c2)CC1 [Example 73, 3,5-Dichlorobenzyl 4-(4-(2-oxo-2,3-dihydrothiazol-5-yl)butanamido)piperidine-1-carboxylate]
Second: N#Cc1cc(Cl)cc(COC(=O)N2CCC(NCCCCc3c[nH]nn3)CC2)c1 [Example 75]
The IC50 of the first is 14-fold lower: 2 nM for the first, 29 nM for the second. The first is the more potent here.

Same assay, conditions: same assay; compounds outside the scope of the invention; read-out: IC50

`O=C(NCC1CCN(C(=O)OCc2cc(Cl)cc(Cl)c2)CC1)c1cc(O)no1` [reference compound] and `O=C(CCCc1c[nH]nn1)NC1CCN(C(=O)OCc2ccccc2)CC1` [reference compound] cannot be ordered by IC50: greater than 1000 nM for the first, 1390 nM for the second.

`O=C(/C=C/c1c[nH]cn1)N1CCN(C2CCN(C(=O)CCc3ccc(C(F)(F)F)cc3)CC2)CC1` [reference compound] was tested, and the IC50 was greater than 5500 nM.
